Our source for the Activity values is ChEMBL document CHEMBL2074085, “P-glycoprotein (P-gp/MDR1)-mediated efflux of sex-steroid hormones and modulation of P-gp expression in vitro” (Pharm Res, 2004).

The data set deals with ATP-dependent translocase ABCB1 (Homo sapiens, UniProt P08183). Description: TP_TRANSPORTER: transepithelial transport in MDR1-expressing MDCK cells. Format: functional, cell-based. The note with it: dog.
ATP-dependent translocase ABCB1, sequence (P08183 whole entry): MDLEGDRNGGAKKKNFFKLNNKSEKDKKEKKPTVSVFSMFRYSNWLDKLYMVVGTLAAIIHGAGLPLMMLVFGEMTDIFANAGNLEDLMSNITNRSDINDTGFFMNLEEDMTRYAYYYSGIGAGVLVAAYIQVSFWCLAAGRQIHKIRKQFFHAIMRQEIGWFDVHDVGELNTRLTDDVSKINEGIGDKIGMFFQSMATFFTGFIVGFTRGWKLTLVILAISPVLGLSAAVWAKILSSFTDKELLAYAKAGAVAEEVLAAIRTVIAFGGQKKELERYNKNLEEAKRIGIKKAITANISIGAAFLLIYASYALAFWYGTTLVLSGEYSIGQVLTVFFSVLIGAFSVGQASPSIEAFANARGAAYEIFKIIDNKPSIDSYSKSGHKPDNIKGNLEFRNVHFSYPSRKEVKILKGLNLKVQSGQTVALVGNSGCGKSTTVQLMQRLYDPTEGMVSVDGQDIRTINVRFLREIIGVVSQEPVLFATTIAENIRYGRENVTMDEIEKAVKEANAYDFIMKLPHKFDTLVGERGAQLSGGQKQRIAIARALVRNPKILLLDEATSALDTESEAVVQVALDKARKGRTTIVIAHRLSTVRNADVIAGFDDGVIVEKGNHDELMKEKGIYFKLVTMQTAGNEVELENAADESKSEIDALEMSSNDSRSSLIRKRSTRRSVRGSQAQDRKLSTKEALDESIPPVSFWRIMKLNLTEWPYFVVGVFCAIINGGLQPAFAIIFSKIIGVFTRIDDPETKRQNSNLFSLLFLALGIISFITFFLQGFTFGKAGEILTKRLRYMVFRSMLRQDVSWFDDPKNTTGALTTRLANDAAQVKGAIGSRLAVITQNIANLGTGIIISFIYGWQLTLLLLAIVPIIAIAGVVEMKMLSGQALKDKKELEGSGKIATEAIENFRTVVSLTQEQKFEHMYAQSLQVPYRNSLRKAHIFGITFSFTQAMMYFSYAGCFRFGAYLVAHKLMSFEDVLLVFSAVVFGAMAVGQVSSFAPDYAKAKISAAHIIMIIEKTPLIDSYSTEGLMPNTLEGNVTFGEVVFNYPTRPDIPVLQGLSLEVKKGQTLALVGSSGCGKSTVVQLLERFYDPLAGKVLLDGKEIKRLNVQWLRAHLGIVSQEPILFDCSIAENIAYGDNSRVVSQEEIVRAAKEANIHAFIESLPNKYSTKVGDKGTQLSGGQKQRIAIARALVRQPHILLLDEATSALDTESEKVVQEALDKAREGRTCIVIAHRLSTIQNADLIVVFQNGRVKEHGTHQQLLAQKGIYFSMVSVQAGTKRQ
Consider `C[C@]12CC[C@@H]3c4ccc(O)cc4CC[C@H]3[C@@H]1CC[C@@H]2O` [ESTRADIOL], for which the Activity entry is “is not a substrate [-]”.
As for `C[C@]12CC[C@@H]3c4ccc(O)cc4CC[C@H]3[C@@H]1C[C@@H](O)[C@@H]2O` [ESTRIOL], the Activity entry is “substrate [+]”.
In the case of `C[C@]12CC[C@@H]3c4ccc(O)cc4CC[C@H]3[C@@H]1CCC2=O` [ESTRONE] it was “substrate [+]”; in that of `C#C[C@]1(O)CC[C@H]2[C@@H]3CCc4cc(O)ccc4[C@H]3CC[C@@]21C` [ETHINYL ESTRADIOL], “substrate [+]”.
As for `C#C[C@]1(O)CC[C@H]2[C@@H]3CCC4=CC(=O)CC[C@@H]4[C@H]3CC[C@@]21C` [NORETHINDRONE], the entry is “is not a substrate [-]”; as for `CC(=O)[C@H]1CC[C@H]2[C@@H]3CCC4=CC(=O)CC[C@]4(C)[C@H]3CC[C@]12C` [PROGESTERONE], “is not a substrate [-]”.
